Source: patent US8173649B2, “Glucokinase activator” (Kyorin Pharmaceutical Co., Ltd., priority 2006, dated 2012)
Values belong to the molecule of their own block, whether it stands above or below them.

Columns and labels:
[1] = system: ICR mice; assay: Hypoglycemic activity test; assay type: in vivo; conditions: statement in words in the description
Protocol: Using male 7- to 9-week-old ICR mice (Charles River Laboratories Japan), the effect of each test compound on the blood glucose levels was observed. Specifically, each compound was dissolved in a 60:40 mixture of Gelucire44/14 (Gatefosse) and PEG400 and was orally administered to the animals after a 2-hour fasting period (30 mg/kg, 10 mL/kg). Using a tube coated with dipotassium ethylenediamine tetraacetate, blood samples were collected from the tail vein immediately before administration (Pre-value), and 0.5, 2 and 4 hours after administration. The blood samples were centrifuged (4° C., 3,600 g, 3 min) to obtain plasma samples.
Each sample was diluted 5-fold with physiological saline and the blood glucose level was measured using glucose CII-test Wako (Wako Pure Chemical Industries). 10 μL each of one of the samples, physiological saline and a 100 mg/dL standard glucose solution (200 mg/dL standard glucose solution diluted two-fold with physiological saline) were placed in each well of a 96-well flat plate. 150 μL of a color-forming solution was added to each well and the plate was left at 37° C. for 5 min to allow the solution to develop color. Using a Lucy2 luminescence reader (Aloka), the measurements were taken at OD=492 nm. The decrease in the sigma glucose (mean decrease in the glucose levels at each blood collection point relative to the Pre-value) was determined from the decrease in the glucose level at each blood collection point relative to the Pre-value.

[2] = in vitro; conditions: microsomes, pH 7.4
Protocol: In a glass test tube, each test compound was incubated with a solution containing liver microsomes of human (Xenotech) or murine (originally prepared from male 7-week-old ICR mice; Charles River Laboratories Japan) origin at 37° C. for 25 min to evaluate the metabolic stability of the compound. The incubation mixture contained 100 mM potassium phosphate buffer (pH 7.4, Wako Pure Chemical Industries), 3 mM MgCl2 (Wako Pure Chemical Industries), 5 mM glucose-6-phosphate (Roche), 1 mM EDTA (Tokyo Chemical Industry), 1 I.U. glucose 6-phosphate dehydrogenase (Roche) and 0.2 mg/mL liver microsome. A test compound was dissolved in DMSO and the solution was added to the reaction mixture to a final concentration of 1 μM. The metabolic process was initiated by the addition of an NADPH (Roche) solution to a final concentration of 1 mM and was terminated after 25 min by the addition of an equal volume of acetonitrile (Fischer). After termination of the process, the supernatant was separated by centrifugation and analyzed by a liquid chromatography-equipped mass spectrometer (SHIMADZU 2010A, Shimadzu) for the concentration of unchanged product.

[3] = In vitro liver microsome metabolic stability test, Method 1, human; assay type: in vitro ADME; conditions: microsomes
Protocol: (§1) In a glass test tube, each test compound was incubated with a solution containing liver microsomes of human (Xenotech) or murine (originally prepared from male 7-week-old ICR mice; Charles River Laboratories Japan) origin at 37° C. for 5 min to evaluate the metabolic stability of the compound. The incubation mixture contained 100 mM potassium phosphate buffer (pH 7.4, Wako Pure Chemical Industries), 3 mM MgCl2 (Wako Pure Chemical Industries), 5 mM glucose-6-phosphate (Roche), 1 mM EDTA (Tokyo Chemical Industry), 1 I.U. glucose 6-phosphate dehydrogenase (Roche) and 1 mg/mL liver microsome. A test compound was dissolved in DMSO and the solution was added to the reaction mixture to a final concentration of 1 μM. The metabolic process was initiated by the addition of an NADPH (Roche) solution to a final concentration of 1 mM and was terminated after 5 min by the addition of an equal volume of acetonitrile (Fischer). After termination of the process, the supernatant was separated by centrifugation and analyzed by a liquid chromatography-equipped mass spectrometer (SHIMADZU 2010A, Shimadzu) for the concentration of unchanged product.

[4] = In vivo pharmacokinetics test (oral bioavailability); parameters: species or system mice; conditions: male, ICR, mouse, plasma, 2 μmol/kg
Protocol: Using male 6-week-old ICR mice (Charles River Laboratories Japan), the oral bioavailability of each test compound was evaluated. Specifically, each test compound was dissolved in dimethylsulfoxide (DMSO, Sigma) and the solution was added to a 1/15 M aqueous solution of sodium dihydrogen phosphate (Wako Pure Chemical Industries) to a concentration of 200 μM. DMSO was added to a final concentration of 30%. The resulting solution was administered to animals. As an intravenous injection group, a group of ICR mice, fasted overnight, were injected in their tail veins with the test compound solution (1 μmol/kg, 5 mL/kg). 5, 15 and 30 minutes after and 1, 2, 4, 8 and 24 hours after the intravenous administration, blood samples were collected from the eyeground of each animal using a heparin-coated capillary tube. […] 10 μL of the separated plasma was diluted with 100 μL of physiological saline and 10 μL of dimethylsulfoxide (sigma) and analyzed by a liquid chromatography-equipped triple quadrupole mass spectrometer (API-3000, Applied Biosystems) for the plasma concentration of unchanged product. The area under the plasma concentration-time curve (AUC) was determined by the trapezoidal method. The bioavailability of a test compound was determined by dividing the average AUC of the oral administration group corrected for the dose by the average AUC of the intravenous administration group.

[5] = In vitro liver microsome metabolic stability test, Method 1, murine; assay type: in vitro ADME, mice; conditions: mouse, microsomes
Protocol: as §1

Compound: CS(=O)(=O)c1ccc([C@H](CC2CC(F)C(F)C2)C(=O)Nc2nccs2)cc1 (single isomer, unassigned; (+)) [compound 2, (+)-3-[(1α,3α,4α)-3,4-difluorocyclopentyl]-2-(4-(methylsulfonyl)phenyl)-N-(thiazole-2-yl)propionamide]
hypoglycemic activity [1]: do not exhibit high hypoglycemic activity

Compound: CS(=O)(=O)c1ccc(C(CC2CC(F)C(F)C2)C(=O)Nc2nccs2)cc1 (single isomer, unassigned; (+)) [compound 8, (+)-3-[(1β,3α,4α)-3,4-difluorocyclopentyl]-2-(4-(methylsulfonyl)phenyl)-N-(thiazole-2-yl)propionamide]
hypoglycemic activity [1]: do not exhibit high hypoglycemic activity

microsomal CLint at 1 μM ([2]; human): ≤ 50 µL/min/mg | microsomal CLint at 1 μM ([2]; male, ICR, mouse): ≤ 50 µL/min/mg | microsomal CLint at 1 μM ([3]; pH 7.4): ≤ 60 µL/min/mg | bioavailability [4]: ≥ 50% | microsomal CLint at 1 μM ([5]; male, ICR, pH 7.4): ≤ 60 µL/min/mg
Compound: CS(=O)(=O)c1ccc(C(C[C@H]2C[C@@H](F)[C@@H](F)C2)C(=O)Nc2nccs2)cc1 (single isomer, unassigned; (-)) [Compound No. 1, (−)-3-[(1α,3α,4α)-3,4-difluorocyclopentyl]-2-(4-(methylsulfonyl)phenyl)-N-(thiazole-2-yl)propionamide]

metabolic clearance [3]: ≤ 0.06 mL/min/mg protein | metabolic clearance [5]: ≤ 0.06 mL/min/mg protein
Compound: Cn1ccc(NC(=O)C(CC2CC(F)C(F)C2)c2ccc(S(C)(=O)=O)cc2)n1 (single isomer, unassigned; (-)) [compound 3, (−)-3-[(1α,3α,4α)-3,4-difluorocyclopentyl]-2-(4-(methylsulfonyl)phenyl)-N-(1-methylpyrazole-3-yl)propionamide]

Compound: CS(=O)(=O)c1ccc(C(CC2CC(F)C(F)C2)C(=O)Nc2nccs2)cc1 (single isomer, unassigned; (-)) [compound 7, (−)-3-[(1β,3α,4α)-3,4-difluorocyclopentyl]-2-(4-(methylsulfonyl)phenyl)-N-(thiazole-2-yl)propionamide]
hypoglycemic activity [1]: do not exhibit high hypoglycemic activity
